The record followed here is ChEMBL document CHEMBL1158624, “Prenylcoumarin with Rev-export inhibitory activity from Cnidii Monnieris Fructus” (Bioorg Med Chem Lett, 2010).

Active and inactive are the calls of the source. The calls are words filed in the database; no cut-off is given here.

A word on the inhibition: it is the drop in the measured response relative to a control, in per cent. As usually defined, the IC50 is the concentration that inhibits the measured activity by half.

Format in all cases: cell-based
The target in assay [1] is T1, Exportin-1 (Homo sapiens, UniProt O14980). The experiment in a line: Inhibition of CRM1-mediated hemagglutininin-tagged HIV1 Rev protein nuclear export in human HeLa cells assessed as nuclear localization at 5 uM after 12 hrs by indirect fluorescent antibody technique.
T1 sequence (O14980 whole entry): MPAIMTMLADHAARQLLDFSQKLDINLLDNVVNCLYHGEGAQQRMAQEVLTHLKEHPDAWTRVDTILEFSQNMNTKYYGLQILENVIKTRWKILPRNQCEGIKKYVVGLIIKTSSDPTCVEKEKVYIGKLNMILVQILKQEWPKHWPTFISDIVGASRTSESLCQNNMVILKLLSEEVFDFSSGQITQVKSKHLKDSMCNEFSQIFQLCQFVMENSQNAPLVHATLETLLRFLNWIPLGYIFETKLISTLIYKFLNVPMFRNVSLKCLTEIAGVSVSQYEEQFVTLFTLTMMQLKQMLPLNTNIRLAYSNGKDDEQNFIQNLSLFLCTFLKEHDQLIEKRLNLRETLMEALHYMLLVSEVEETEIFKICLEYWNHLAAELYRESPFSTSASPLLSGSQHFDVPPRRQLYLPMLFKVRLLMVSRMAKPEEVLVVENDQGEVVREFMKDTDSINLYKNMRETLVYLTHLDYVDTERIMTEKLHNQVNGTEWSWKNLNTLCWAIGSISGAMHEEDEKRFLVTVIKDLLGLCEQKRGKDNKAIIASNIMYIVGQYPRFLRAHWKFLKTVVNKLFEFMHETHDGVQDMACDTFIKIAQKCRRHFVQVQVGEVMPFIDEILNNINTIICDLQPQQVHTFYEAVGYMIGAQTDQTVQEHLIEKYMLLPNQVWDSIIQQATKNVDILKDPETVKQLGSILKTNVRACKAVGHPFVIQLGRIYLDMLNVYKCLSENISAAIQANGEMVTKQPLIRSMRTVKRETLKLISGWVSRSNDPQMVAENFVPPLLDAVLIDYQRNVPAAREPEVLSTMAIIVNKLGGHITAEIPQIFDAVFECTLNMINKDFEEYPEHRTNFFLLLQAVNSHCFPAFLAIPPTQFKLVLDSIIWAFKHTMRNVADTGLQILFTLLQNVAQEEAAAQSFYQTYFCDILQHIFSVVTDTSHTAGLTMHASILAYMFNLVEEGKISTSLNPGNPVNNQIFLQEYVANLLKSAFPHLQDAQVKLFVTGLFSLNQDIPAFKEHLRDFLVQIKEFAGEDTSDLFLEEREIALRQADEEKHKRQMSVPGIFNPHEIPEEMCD
Assay [2] addresses T1, Exportin-1. Description: Inhibition of CRM1-mediated hemagglutininin-tagged HIV1 Rev protein nuclear export in human HeLa cells assessed as nucleus localization after 12 hrs by indirect fluorescent antibody technique.
The target in assay [3] is T1, Exportin-1. The experiment in a line: Inhibition of CRM1-mediated hemagglutininin-tagged HIV1 Rev protein nuclear export in human HeLa cells assessed as nucleus localization at 25 uM after 12 hrs by indirect fluorescent antibody technique.

In the case of `COc1ccc2ccc(=O)oc2c1CC=C(C)C` [OSTHOLE], the inhibition result in assay [1] was “Active”. The IC50 in assay [2] worked out at 1.6 µM.

Regarding `COc1ccc2c(c1CC=C(C)C)OC(=O)CC2`, in assay [3], the inhibition amounted to 2.6%.

Take `COc1ccc2ccc(=O)oc2c1` [HERNIARIN]: in assay [2], the IC50 was > 25 µM.

With `CC(C)=CCc1cccc2ccc(=O)oc12`, the IC50 in assay [2] came out at 6.4 µM.

As to `O=c1ccc2ccccc2o1` [COUMARIN], the 50% inhibitory concentration (IC50) in assay [2] was > 25 µM.
